Laboratory results reported in US20050255537A1, “Method for monitoring treatment with a parathyroid hormone” (priority 1999, published 2005).

Tested on: postmenopausal women and osteoporotic men
Assay: Example 6 spine BMD treatment-response model and BCM response-indicator neural network (women and men)
Format: in vivo, human
Source text: Data from studies in Examples 1 and 5 above were further analyzed to develop more detailed models for the use of bone markers in monitoring and predicting effects of PTH on clinically significant correlates of efficacy in the treatment of osteoporosis, such as bone mineral density (BMD). Population pharmacodynamic (PD) models were developed for total lumbar spine BMD, and the following biochemical markers of bone formation and resportion: PICP, BSAP, NTX, and DPD. The final treatment-response model for total lumbar spine was used to calculate BMD values at 12 months of treatment for each patient, based on the individual's parameter estimates (empirical Bayesian estimate). These predicted BMD measurements were merged with the observed BCM values, at baseline, 1 month, and 3 months of treatment, for patients who completed at least 12 months of LY333334 treatment. A neural network was developed to characterize the relationship between BCM values at 1 and 3 months and response to treatment, as measured by change in total lumbar spine BMD.
The spine BMD placebo-response model characterized change in total lumbar spine BMD over time in osteoporotic patients taking calcium and vitamin D supplements. The BMD treatment-response model was used to characterize change in total lumbar spine BMD during the course of treatment and to identify patient factors influencing response to therapy. This model was also used to provide individual estimates of change in BMD at 12 months. The BCM treatment-response models characterized changes in PICP, BSAP, NTX, and DPD, during the course of treatment.
The individual estimates of change in spine BMD from the final treatment-response model were combined with observed BCM values to develop the response-indicator neural network. The neural network was used to evaluate change in the biochemical markers as early indicators of change in total lumbar spine BMD.
Change in total lumbar spine BMD at 12 months of treatment was calculated from the post-hoc BMD estimates for each patient from the final spine BMD treatment-response model. These BMD estimates were combined with observed BCM values at baseline, 1, and 3 months for all patients completing at least 12 months of LY333334 therapy.
Neural networks were used to evaluate the biochemical markers as potential indicators of bone mineral density response to LY333334 treatment. The relationship between change in biochemical marker values and change in spine BMD is complex and the appropriate model structure is unknown. The neural network approach was chosen to avoid the a priori assumption of a model form. A proprietary artificial neural network program developed at Eli Lilly and Company (described in Wikel J, Dow E, Heathman M. 1996. Interpretive Neural Networks for QSAR. Network Science [available on-line]) was used to evaluate the BCM values as predictors of change in spine BMD. Other back-propagation networks which are known in the art and commercially available also would provide similar results. The BCM values, as well as significant patient factors from the final spine BMD treatment-response model, were used as inputs to the neural network. The network was trained to predict change in total lumbar spine BMD.

[1] = Female Patients, BSAP at 3 Months 10-14.99 pM
[2] = Female Patients, BSAP at 3 Months 15-19.99 pM
[3] = Female Patients, BSAP at 3 Months <10 pM
[4] = Female Patients, BSAP at 3 Months ≧20 pM
[5] = Females, change in PICP at 1 month 50-99 pM, baseline PICP <100 pM
[6] = Females, change in PICP at 1 month 50-99 pM, baseline PICP ≧100 pM
[7] = Females, change in PICP at 1 month 100-149 pM, baseline PICP <100 pM
[8] = Females, change in PICP at 1 month 100-149 pM, baseline PICP ≧100 pM
[9] = Females, change in PICP at 1 month <50 pM, baseline PICP <100 pM
[10] = Females, change in PICP at 1 month <50 pM, baseline PICP ≧100 pM
[11] = Females, change in PICP at 1 month ≧150 pM, baseline PICP ≧100 pM
[12] = Male Patients, BSAP at 3 Months 10-14.99 pM
[13] = Male Patients, BSAP at 3 Months 15-19.99 pM
[14] = Male Patients, BSAP at 3 Months <10 pM
[15] = Male Patients, BSAP at 3 Months ≧20 pM
[16] = Males, change in PICP at 1 month 50-99 pM, baseline PICP <100 pM
[17] = Males, change in PICP at 1 month 50-99 pM, baseline PICP ≧100 pM
[18] = Males, change in PICP at 1 month 100-149 pM, baseline PICP <100 pM
[19] = Males, change in PICP at 1 month 100-149 pM, baseline PICP ≧100 pM
[20] = Males, change in PICP at 1 month <50 pM, baseline PICP <100 pM
[21] = Males, change in PICP at 1 month <50 pM, baseline PICP ≧100 pM
[22] = Males, change in PICP at 1 month ≧150 pM, baseline PICP <100 pM
[23] = Males, change in PICP at 1 month ≧150 pM, baseline PICP ≧100 pM
[24] = all patients with baseline PICP >100 pM and increase in PICP >100 pM, 12 months
[25] = male patients with baseline PICP >100 pM and increase in PICP >100 pM
[26] = postmenopausal women with baseline PICP >100 pM and increase in PICP >100 pM

SMILES: CC[C@H](C)[C@H](NC(=O)[C@H](CCC(=O)O)NC(=O)[C@H](CO)NC(=O)[C@@H](NC(=O)[C@@H](N)CO)C(C)C)C(=O)N[C@@H](CCC(N)=O)C(=O)N[C@@H](CC(C)C)C(=O)N[C@@H](CCSC)C(=O)N[C@@H](Cc1cnc[nH]1)C(=O)N[C@@H](CC(N)=O)C(=O)N[C@@H](CC(C)C)C(=O)NCC(=O)N[C@@H](CCCCN)C(=O)N[C@@H](Cc1cnc[nH]1)C(=O)N[C@@H](CC(C)C)C(=O)N[C@@H](CC(N)=O)C(=O)N[C@@H](CO)C(=O)N[C@@H](CCSC)C(=O)N[C@@H](CCC(=O)O)C(=O)N[C@@H](CCCN=C(N)N)C(=O)N[C@H](C(=O)N[C@@H](CCC(=O)O)C(=O)N[C@@H](Cc1c[nH]c2ccccc12)C(=O)N[C@@H](CC(C)C)C(=O)N[C@@H](CCCN=C(N)N)C(=O)N[C@@H](CCCCN)C(=O)N[C@@H](CCCCN)C(=O)N[C@@H](CC(C)C)C(=O)N[C@@H](CCC(N)=O)C(=O)N[C@@H](CC(=O)O)C(=O)N[C@H](C(=O)N[C@@H](Cc1cnc[nH]1)C(=O)N[C@@H](CC(N)=O)C(=O)N[C@@H](Cc1ccccc1)C(=O)O)C(C)C)C(C)C [LY333334]
- % Change in Spine BMD at 12 Months, 5th-95th Percentiles [1]: 1.5-18.9%
- % Change in Spine BMD at 12 Months, Mean [1]: 9.4%
- % Change in Spine BMD at 12 Months, 5th-95th Percentiles [2]: 3.4-24.7%
- % Change in Spine BMD at 12 Months, Mean [2]: 12.2%
- % Change in Spine BMD at 12 Months, 5th-95th Percentiles [3]: 0.5-15.3%
- % Change in Spine BMD at 12 Months, Mean [3]: 7.2%
- % Change in Spine BMD at 12 Months, 5th-95th Percentiles [4]: 4.6-20.9%
- % Change in Spine BMD at 12 Months, Mean [4]: 12.9%
- % Change in Spine BMD at 12 Months, 5th-95th Percentiles [5]: 2.2-19.0%
- % Change in Spine BMD at 12 Months, Mean [5]: 9.5%
- % Change in Spine BMD at 12 Months, 5th-95th Percentiles [6]: 3.6-18.8%
- % Change in Spine BMD at 12 Months, Mean [6]: 10.4%
- % Change in Spine BMD at 12 Months, 5th-95th Percentiles [7]: 2.9-16.1%
- % Change in Spine BMD at 12 Months, Mean [7]: 10.4%
- % Change in Spine BMD at 12 Months, 5th-95th Percentiles [8]: 6.9-19.7%
- % Change in Spine BMD at 12 Months, Mean [8]: 12.6%
- % Change in Spine BMD at 12 Months, 5th-95th Percentiles [9]: −0.7-12.4%
- % Change in Spine BMD at 12 Months, Mean [9]: 5.7%
- % Change in Spine BMD at 12 Months, 5th-95th Percentiles [10]: 2.9-17.3%
- % Change in Spine BMD at 12 Months, Mean [10]: 9.0%
- % Change in Spine BMD at 12 Months, Mean (Females, change in PICP at 1 month ≧150 pM, baseline PICP <100 pM): 13.7%
- % Change in Spine BMD at 12 Months, 5th-95th Percentiles [11]: 11.9-31.1%
- % Change in Spine BMD at 12 Months, Mean [11]: 18.5%
- % Change in Spine BMD at 12 Months, 5th-95th Percentiles [12]: 1.9-14.9%
- % Change in Spine BMD at 12 Months, Mean [12]: 7.9%
- % Change in Spine BMD at 12 Months, 5th-95th Percentiles [13]: 3.0-15.0%
- % Change in Spine BMD at 12 Months, Mean [13]: 8.3%
- % Change in Spine BMD at 12 Months, 5th-95th Percentiles [14]: 1.6-13.0%
- % Change in Spine BMD at 12 Months, Mean [14]: 7.1%
- % Change in Spine BMD at 12 Months, 5th-95th Percentiles [15]: 1.6-19.6%
- % Change in Spine BMD at 12 Months, Mean [15]: 10.0%
- % Change in Spine BMD at 12 Months, 5th-95th Percentiles [16]: 4.6-18.1%
- % Change in Spine BMD at 12 Months, Mean [16]: 9.4%
- % Change in Spine BMD at 12 Months, 5th-95th Percentiles [17]: 3.6-15.8%
- % Change in Spine BMD at 12 Months, Mean [17]: 8.7%
- % Change in Spine BMD at 12 Months, 5th-95th Percentiles [18]: 7.2-14.0%
- % Change in Spine BMD at 12 Months, Mean [18]: 11.1%
- % Change in Spine BMD at 12 Months, 5th-95th Percentiles [19]: 4.6-18.6%
- % Change in Spine BMD at 12 Months, Mean [19]: 11.3%
- % Change in Spine BMD at 12 Months, 5th-95th Percentiles [20]: 1.2-11.7%
- % Change in Spine BMD at 12 Months, Mean [20]: 4.8%
- % Change in Spine BMD at 12 Months, 5th-95th Percentiles [21]: 1.5-11.7%
- % Change in Spine BMD at 12 Months, Mean [21]: 6.9%
- % Change in Spine BMD at 12 Months, 5th-95th Percentiles [22]: 2.7-20.8%
- % Change in Spine BMD at 12 Months, Mean [22]: 10.7%
- % Change in Spine BMD at 12 Months, 5th-95th Percentiles [23]: 6.0-18.0%
- % Change in Spine BMD at 12 Months, Mean [23]: 10.2%
- mean increase in total lumbar spine BMD [24]: 13.6%
- minimum increase in total lumbar spine BMD [24]: ≥ 4.3%
- mean increase in total lumbar spine BMD [25]: 10.8%
- minimum increase in total lumbar spine BMD [25]: ≥ 4.3%
- mean increase in total lumbar spine BMD (men who did not meet the PICP criteria): 7.4%
- mean increase in total lumbar spine BMD (patients who did not meet the PICP criteria, 12 months): 8.2%
- mean increase in total lumbar spine BMD [26]: 16.0%
- minimum increase in total lumbar spine BMD [26]: ≥ 5.9%
- mean increase in total lumbar spine BMD (women who did not meet the PICP criteria): 8.8%
